One compound from ChEMBL document CHEMBL1142166, “Inhibition of antiassociation activity of translation initiation factor 3 by paromomycin” (2007) can be followed below.

Activity calls are given as the source filed them. No cut-off for these calls is given here.

Test [1] concerns Escherichia coli. The test is described as follows: Association of ribosome subunits into 70S ribosome of Escherichia coli MRE600 in presence of 6 mM Mg2+. It counts as functional.
The subject of test [2] is Escherichia coli. The test is described as follows: Association of ribosome subunits into 70S ribosome of Escherichia coli MRE600 assessed upto 20 uM in the presence of 1 mM Mg2+. Format: functional.
The subject of test [3] is Escherichia coli. The test can be described thus: Association of ribosome subunits into 70S ribosome of Escherichia coli MRE600 assessed above 20 uM in the presence of 1 mM Mg2+. It counts as functional, organism-based.
Test [4] has as its target T1, Translation initiation factor IF-3 (Escherichia coli K-12) (UniProt P0A707).
T1 sequence (whole entry): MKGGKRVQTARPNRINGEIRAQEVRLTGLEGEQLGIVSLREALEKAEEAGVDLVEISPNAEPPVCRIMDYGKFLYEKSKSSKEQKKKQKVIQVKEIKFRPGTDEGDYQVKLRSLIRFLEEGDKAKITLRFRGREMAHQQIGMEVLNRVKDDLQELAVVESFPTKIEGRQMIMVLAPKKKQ
The test can be described thus: Inhibition of Escherichia coli XL1-Blue IF3 binding to 30S subunit at 100 uM in presence of 8.2 mm Mg2+.

In test [5] the test system is Escherichia coli. The test is described as follows: Association of ribosome subunits into 70S ribosome of Escherichia coli MRE600 in presence of 4 mM Mg2+. Format: functional.
Test [6] relates to Escherichia coli. The test can be described thus: Association of ribosome subunits into 70S ribosome of Escherichia coli MRE600 at 0.1 mM in presence of 4 mM Mg2+. It counts as functional.
Test [7] has as its target T1, Translation initiation factor IF-3 (Escherichia coli K-12). The test can be described thus: Inhibition of Escherichia coli XL1-Blue IF3 antiassociation activity at 0.1 uM in the presence of 8.2 mM Mg2+.

Regarding `NC[C@@H]1O[C@H](O[C@H]2[C@@H](O)[C@H](O[C@@H]3[C@@H](O)[C@H](N)C[C@H](N)[C@H]3O[C@H]3O[C@H](CO)[C@@H](O)[C@H](O)[C@H]3N)O[C@@H]2CO)[C@H](N)[C@@H](O)[C@@H]1O` [PAROMOMYCIN], the Activity was determined as 55% in test [1], 50% in test [2], 40% in test [5] and 70% in test [6]. Also, the outcome in test [3] and in test [4] was inactive. The outcome in test [7] was Active.
